The numbers were not newly measured in the CATMoS acute toxicity set (Mansouri et al. 2021), which cites them from elsewhere.

“And” between values parts separate entries of the source, which are not always exact repeats. Identical values can stand only once.

A short description of this series: rat acute oral toxicity. To be noted: in vivo.
For orientation: LD50 means the dose expected to kill half of the subjects tested. With `C=C(C)CCl`, the LD50 was 848 mg/kg. With `FC(F)(F)C(Cl)(Cl)C(Cl)(Cl)C(F)(F)F`, the LD50 was 800 mg/kg.

Turning to `CN(C)N=Nc1ccc(-c2ccccc2)cc1`, the LD50 was 347 mg/kg. As for `COc1ccc2c(c1)N(CCC1CCCCN1C)c1ccccc1S2` (stereo not drawn), the 50% lethal dose (LD50) was 1130 mg/kg. On to `CCCOP(=O)(SCCC)SCCC`, for which the LD50 was 129 mg/kg. Regarding `CCCCCCCCOP(OCC(CC)CCCC)Oc1ccccc1` (stereo not drawn), the LD50 is 7000 mg/kg. Consider `CCOP(=O)(OCC)Oc1cc(C)oc(=O)c1`, for which the LD50 is 3.34 mg/kg.

Consider `COc1ccc2c(c1)CCC(N(CCCCOC(=O)c1ccc(OC)c(OC)c1)C(C)C)C2` (stereo not drawn), for which the LD50 was 1540 mg/kg. For `CC1=CC(=O)C(C(C)C)CC1` (stereo not drawn), the LD50 is 2450 mg/kg. Turning to `CC(=O)OC(C)=O`, the LD50 is 1780 mg/kg. Regarding `O=C(O)CCCCCCl`, the LD50 is 3080 mg/kg. In the case of `COP(=O)(OC)C(OC(=O)CCl)C(Cl)(Cl)Cl` (stereo not drawn), the median lethal dose (LD50) is 344 mg/kg.

For the compound `CCOP(=O)(OCC)Oc1ccc(Cl)cc1Cl`, the LD50 is 100 mg/kg. Turning to `O=C(O)C(F)(F)C(F)(F)C(F)(F)C(F)(F)C(F)(F)C(F)(F)C(F)(F)F`, the LD50 is 430 mg/kg. With `O=S(=O)(O)c1ccc2cc(Nc3cccc4c(O)c(S(=O)(=O)O)ccc34)ccc2c1O`, the LD50 is 11000 mg/kg. As for `CC(Cl)CO` (stereo not drawn), the LD50 was 218 mg/kg. Regarding `C=COC(=O)CCCCC(=O)OC`, the LD50 is 6200 mg/kg.

As for `COc1cc(C(O)C(C)NC(C)COc2ccccc2)ccc1O` (stereo not drawn), the LD50 is 1280 mg/kg. Take `O=c1nc(O)n(Cl)c(=O)n1Cl`: the LD50 was 1220 mg/kg. For the compound `CNC(=O)Oc1ccc(C)c2c1OC(C)(C)C2`, the LD50 is 12 mg/kg. Turning to `Nc1ccc(N(c2ccccc2)c2ccc(N)cc2)cc1`, the LD50 is 330 mg/kg. Turning to `CN(CCn1cnc2c1c(=O)n(C)c(=O)n2C)c1ccccc1`, the LD50 was 2880 mg/kg. In the case of `C/C=C/Cl`, the LD50 is 1950 mg/kg.

`CC1(C)C(=O)[C@@]2(C)CC[C@@H]1C2`: the LD50 was 6160 mg/kg. As for `OCc1ccc(OCCn2ccnc2)cc1`, the LD50 is 4860 mg/kg. Consider `Cc1nn(C)c(=O)c2noc(C)c12`, for which the LD50 was 1000 mg/kg.

For `Cc1cc(N)ccc1N`, the LD50 is 98 mg/kg and 102 mg/kg.

As for `COP(=S)(OC)SCC(N)=O`, the LD50 is 925 mg/kg. On to `CC1CO1` (stereo not drawn), for which the LD50 was 380 mg/kg.

In the case of `CC(O)C(Cl)(Cl)Cl` (stereo not drawn), the LD50 is 1000 mg/kg. On to `COc1nccc(C(F)(F)F)c1S(=O)(=O)Cl`, for which the LD50 was 3130 mg/kg. For the compound `CCCC(=O)c1ccc2c(c1)N(CCCN1CCOCC1)c1ccccc1S2`, the LD50 was 3500 mg/kg. For the compound `CCOP(=S)(OCC)OCCSCC`, the LD50 is 7.5 mg/kg.

For the compound `CCOP(=S)(OCC)SC1OCCOC1SP(=S)(OCC)OCC` (stereo not drawn), the LD50 was 20 mg/kg. Turning to `Oc1cc(Cl)c(Br)cc1Cl`, the LD50 was 1350 mg/kg. For the compound `CCCOc1c(Cl)c(Cl)c(Cl)c(Cl)c1Cl`, the LD50 is 430 mg/kg. For the compound `Nc1ccccc1SCc1ncon1`, the median lethal dose (LD50) is 79.4 mg/kg and 63 mg/kg. Regarding `COC(CNCc1ccccc1)c1cccc(C(F)(F)F)c1` (stereo not drawn), the LD50 is 1720 mg/kg. Take `COP(=S)(OC)SCc1nc(=O)o[nH]1`: the LD50 is 10 mg/kg.

Regarding `C1CCc2c(OCCN3CCOCC3)n[nH]c2C1`, the LD50 is 1600 mg/kg.

Consider `CCCSC(=O)Cl`, for which the LD50 is 1130 mg/kg. For `O=C(Nc1nc(C(F)(F)F)c(Cl)s1)c1cc(C(F)(F)F)cc(C(F)(F)F)c1`, the LD50 was 69 mg/kg. Take `CCCCCl`: the LD50 was 2670 mg/kg. On to `C=C(CC)C(=O)c1ccc(OCC(=O)O)c(Cl)c1Cl`, for which the LD50 was 1000 mg/kg. With `CC(C)CCI`, the LD50 was 1420 mg/kg. As to `NCCCCCCCCCCC(=O)O`, the 50% lethal dose (LD50) was 14700 mg/kg. Take `CCN(N=O)C(C)OC` (stereo not drawn): the LD50 is 1000 mg/kg.

In the case of `CN(C)c1ccc(C(=C2C=CC(=[N+](C)C)C=C2)c2ccc(N(C)C)cc2)cc1`, the LD50 was 420 mg/kg.

`C#CCN1CCC2=C(C1)c1c(O)cc(C(C)C(C)CCCCC)cc1OC2(C)C` (stereo not drawn): the median lethal dose (LD50) is 900 mg/kg. Regarding `CNC(=O)Oc1cc(C)c(C)cc1Cl`, the LD50 is 30 mg/kg.

`COc1cc2nc(N3CCC(N(C)C(=O)c4ccccc4)CC3)nc(N)c2cc1OC`: the LD50 was 1000 mg/kg. As to `CCCCC(C)(C)[C@H](O)C=C[C@H]1[C@H](O)CC(=O)[C@@H]1CCCCC=CC(=O)OC`, the LD50 is 56.5 mg/kg.

For the compound `CCCN(CCC)N=O`, the LD50 is 480 mg/kg. `CCOP(=O)(OCC)SCC`: the LD50 was 27 mg/kg. Regarding `CCC1(NC(N)=O)CCCC1`, the LD50 was 950 mg/kg. `O=C1CCOc2ccccc21`: the LD50 is 2650 mg/kg. Take `CCN(C)N=O`: the LD50 is 90 mg/kg. Consider `BrC12CC3CC(CC(C3)C1)C2`, for which the LD50 is 8470 mg/kg.

As to `O=C(O)/C=C/c1ccc(Cn2ccnc2)cc1`, the LD50 is 4160 mg/kg. In the case of `CCN(CC)CC#CC(C)(C)OC(=O)C(O)(c1ccccc1)C1CCCCC1` (stereo not drawn), the LD50 is 735 mg/kg. As for `CCCCOC(=O)CCCCC(=O)OCCCC`, the LD50 is 12900 mg/kg.

With `Cc1cccc(C)c1CCNC(N)=O`, the LD50 is 1500 mg/kg. Turning to `C[C@H](CCC(=O)O)[C@H]1CC[C@H]2[C@@H]3[C@H](O)C[C@@H]4C[C@H](O)CC[C@]4(C)[C@H]3CC[C@]12C`, the LD50 is 4000 mg/kg.
